One assay concerns the target T1, Acid ceramidase (ACDase) (Homo sapiens, UniProt Q13510).
T1 construct: endogenous in cells; host or cells: Hep G2
T1 sequence (Q13510 22-395): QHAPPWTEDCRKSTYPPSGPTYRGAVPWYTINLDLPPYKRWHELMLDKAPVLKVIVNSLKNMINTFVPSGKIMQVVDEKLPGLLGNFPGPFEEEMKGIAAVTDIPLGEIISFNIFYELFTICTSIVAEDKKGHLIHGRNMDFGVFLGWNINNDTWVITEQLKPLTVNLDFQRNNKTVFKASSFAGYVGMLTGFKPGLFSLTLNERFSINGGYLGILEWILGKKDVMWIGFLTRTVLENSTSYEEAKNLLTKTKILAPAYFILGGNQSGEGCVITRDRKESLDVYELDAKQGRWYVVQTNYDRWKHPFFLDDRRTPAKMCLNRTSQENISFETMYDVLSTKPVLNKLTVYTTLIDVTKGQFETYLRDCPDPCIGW
Kind of assay: ACDase activity assay (fluorogenic). The format is cell-based. Conditions: for ACDase activity in cell extract compared to control: Hep G2, 125 µM and higher concentrations. As for the experimental part: (§1) The cell line was grown in RPMI-1640 medium supplemented with L-glutamine 2 mM, HEPESNa 25 mM, penicillin 100 U/mL, streptomycin 100 μg/mL and 10% […] (FBS) at 37 °C in a humidified atmosphere containing 5% CO2. Hep G2 cells were seeded at 1 × 10^6 cells/mL and sub cultured every 2–3 days after 60–80% confluence was reached. To prepare the lysates cells attached to the culture plate were scraped off with a cell scraper and collected in a 1.5 mL tube by centrifugation. The cell pellets were rinsed with PBS, suspended in sterile water, and then lysed by sonication. For each experiment, the cells were treated separately with increasing concentrations of silibinin derivatives (0, 25, 50, 75, 100, 125, 150, 175 and 200 μM) and incubated for 48 h.
ACDase activity was measured in intact cells and in cell lysates by fluorogenic assays. For intact cell assays, cells (10,000/well) were seeded into 96-well plates in 10% FBS medium. After 24 h, medium was removed and replaced with 5% FBS medium containing indicated concentrations of silibinin derivatives (controls contained ethanol vehicle). Plates were placed in a tissue culture incubator at 37 °C, 5% CO2 for 24 h and cell viability assays were conducted in parallel. Fluorogenic substrate (ethanol vehicle) was then added to a final concentration of 16μM (125 μL final well volume), and the plates were incubated for 3 h at 37 °C, 5% CO2. To complete the assays, 50 μL methanol and 100 μL NaIO4 (2.5 mg/mL) in 0.1 M glycine buffer with a pH of 10.6 were added and the plates were incubated in a dark place for 2 h at 37 °C. Fluorescence was measured in the UV range (365 nm excitation/410–460 nm emission) using a GloMax® multi-detection system (Promega, Madison, WI).
To measure ACDase activity in cell lysates, cells were harvested using trypsin/EDTA, washed three times in ice-cold PBS and re-suspended at a concentration of 1 × 10^6 cells/mL in 0.2 M sucrose. After sonication on ice (microtip, 5–10 s), lysates were centrifuged at 20,000 × g at 4 °C for 15 min to remove debris. Protein in the supernatant was measured using the BCA assay (Pierce Products, Thermo Scientific, Rockford, IL) and bovine serum albumin standard curves. Supernatant protein (60 μg) was added to 96-well plates containing the indicated compounds and sodium acetate–acetic acid buffer, pH 4.5 (25 mM), and incubated for 1 h at 37 °C, in final well volume of 100 μL. Fluorescent substrate was added to a final concentration of 40 μM (125 μL total well volume), and the assay was incubated in the dark at 37 °C for 3 h. Fluorescence was then measured as described above ([23]).

Assay [1] concerns Neutral sphingomyelinase (NSMase). Kind of assay: NSMase activity assay (Amplex Red kit). Conditions: for NSMase activity in comparison with control: Hep G2, 125 µM and higher concentrations. The format is cell-based, human. The procedure:
as §1
Amplex™ Red NSMase Assay Kit (AAT Bioquest®, Inc. product no: 13620) was used to determine NSMases activity. The kit uses Amplite™ Red as a colorimetric probe to indirectly quantify the phosphocholine produced from the hydrolysis of sphingomyelin by NSMase.
Cells were washed with ice cold PBS and homogenized in neutral lysis buffer (20 mM Tris–HCl pH 7.4, 2 mM EDTA, 5 mM EGTA, 1 mM PMSF, 1% protein cocktail inhibitor and 1 mM sodium orthovanadate) for NSMase assays. Samples were kept on ice 15 min and centrifuged at 14,000 × g for 20 min at 4 °C. 100 µL of each supernatant fraction were incubated at 37 °C for 1hour with working solution. The fluorescence count of produced resorophine in the previous step was measured with a fluorescence micro plate reader by using excitation at 540 nm and emission at 590 nm ([36]).

For the molecule `COc1cc([C@H]2Oc3cc([C@H]4Oc5cc(O)cc(O)c5C(=O)[C@@H]4O)ccc3O[C@@H]2CO)ccc1O` [SA, silybin A], the “ACDase activity, effect of cell exposure” value on Acid ceramidase (ACDase) (Hep G2, throughout the concentration range (0-200 µM)) is reported as “could not alter ACDase activity”. The molecule further registered an inhibition at 200 µM on Acid ceramidase (ACDase) (HepG2, Hep G2 cell extract, 200 µM) of 18%. Besides, in assay [1], the “NSMase activity in comparison with control” value (shortened to “NSMase activity in comparison”) was “considerable increase”.

Turning to `COc1cc([C@@H]2Oc3cc([C@H]4Oc5cc(O)cc(O)c5C(=O)[C@@H]4O)ccc3O[C@H]2CO)ccc1O` [SB, silybin B], the “ACDase activity in cell extract compared to control” value on Acid ceramidase (ACDase) is listed as “markedly inhibited”. For the same molecule, in assay [1], the “NSMase activity in comparison” value was “considerable increase”.

On to `COc1cc([C@H]2Oc3cc([C@H]4Oc5cc(O)cc(O)c5C(=O)[C@@H]4OC(=O)c4cc(O)c(O)c(O)c4)ccc3O[C@@H]2CO)ccc1O` [SGA, 3-O-galloyl silybin A], for which the “ACDase activity in cell extract compared to control” value at Acid ceramidase (ACDase) is “markedly inhibited”. Besides, in assay [1], the “NSMase activity in comparison” value is given as “considerable increase”.

In the case of `COc1cc([C@@H]2Oc3cc([C@H]4Oc5cc(O)cc(O)c5C(=O)[C@@H]4OC(=O)c4cc(O)c(O)c(O)c4)ccc3O[C@H]2CO)ccc1O` [SGB, 3-O-galloyl silybin B], the “ACDase activity in cell extract compared to control” value at Acid ceramidase (ACDase) is “markedly inhibited”. In addition, the “NSMase activity with respect to control” value in assay [1] (Hep G2, all concentrations (0-200 µM)) is on record as “did not exert any significant change”.

A word on the inhibition: it is the percentage by which the read-out fell short of the control.

Values taken from PMC5149029, “New Aspects of Silibinin Stereoisomers and their 3-O-galloyl Derivatives on Cytotoxicity and Ceramide Metabolism in Hep G2 hepatocarcinoma Cell Line” (Iranian Journal of Pharmaceutical Research : IJPR, 2016).
